Where “and” joins values, the source holds several entries; their conditions need not be identical. Identical values can stand only once. Like-named read-outs stand apart in the source and are kept apart here.
Assays:
[1] = target: T1, TSPO (Rattus norvegicus, UniProt P16257); design: from tissue; method as in PMID 17680643; conditions: same animal model; cited from earlier work
[2] = tested on: TPSO; conditions: cited from earlier work
[3] = target: T1, TSPO; test: In vitro autoradiography with [^125I]-CLINME on lesioned brain tissue; format: binding, SD rats; design: from tissue; host or cells: male Sprague-Dawley rats: peripheral organs and brain in vivo; AMPA-lesioned striatum; brain sections; conditions: autoradiography, 16 nM [^125I]-CLINME
[4] = target: T1, TSPO; conditions: competing drug 1 mg/Kg i.v. 5 min prior to tracer, rats, 30 min p.i.
Experimental: The saturation effect of [^123I]-CLINME uptake was studied in competition experiments by injecting CLINME (1 mg/Kg), 5 min prior to [^123I]-CLINME (0.7 MBq, 10 pmoles in 0.1 mL of 0.9% saline), via the tail vein, to 8–10-week-old male SD rats.
The drugs were dissolved in dimethyl sulfoxide/saline (1 : 5) and injected intravenously 5 min prior to [^123I]-CLINME. Groups of rats (n = 3-4) were sacrificed by CO2 administration followed by cervical fracture 30 min after administration of [^123I]-CLINME and peripheral organs (liver, spleen, lung, heart, kidney, and adrenals), blood, olfactory bulbs, and the remainder of the brain were removed. The radioactivity concentrations were calculated as described previously. Results were analysed by one-way analysis of variance (ANOVA) followed by Tukey's post hoc test for comparing the tissue radioactivity concentrations in the treated animals (n = 3-4) and in the controls (n = 6). The criterion for significance was P < 0.05.

[5] = tested on: TPSO; conditions: cited from earlier work; remark: listed apart in the source
[6] = Metabolite studies (radio-TLC of tissue and plasma extracts); format: in vivo, SD rats; conditions: rats
Experimental: Groups of male SD rats were injected with [^123I]-CLINME (7.4 MBq in 0.1 mL of 0.9% saline) and sacrificed at 15, 60, and 180 min p.i. Adrenals, kidney, heart, and brain were quickly excised.
Tissue fractions (200 mg) were treated with acetonitrile (2 mL) and homogenised, and the mixture was centrifuged at 2,000 rpm. The supernatant was removed and the pellet was treated for a second time, as above and the combined supernatants concentrated to 50 μL. Plasma (0.2 mL) separated from blood was extracted with acetonitrile and concentrated. The concentrated extracts were applied onto silica gel C18 plates with a preconcentration zone (Merck, Darmstadt, Germany) and developed with ethyl acetate. The radioactivity distribution was measured using a static radiochromatogram analyser (Berthold Co.).

[7] = target: T1, TSPO; test: SPECT imaging of unilateral excitotoxic (AMPA) striatum lesion; format: in vivo, SD rats; design: from tissue; host or cells: male Sprague-Dawley rats: peripheral organs and brain in vivo; AMPA-lesioned striatum; brain sections; conditions: AMPA lesion rat model
Experimental: Lesioning was performed by stereotaxically injecting 7.5 nmol α-amino-3-hydroxy-5-methylisoxazole-4-propionic acid (AMPA) unilaterally into the striatum. Male SD rats (317 ± 56 g) were anaesthetised with inhaled isoflurane in O2 (5% induction, ~2% maintenance thereafter) and positioned in a stereotaxic frame (Stoelting Co., USA). A 1.5 cm incision was made in the scalp to reveal the skull surface and a burr hole was drilled over the injection site. […] Following the injection, the needle was left in situ for a further 5 min to allow the fluid to disperse. After the needle was withdrawn, the incision was sutured and cleansed. Animals were given a week to recover prior to imaging. Analgesia was provided by subcutaneous administration of 0.05 mg/Kg buprenorphine.
Two hours prior to [^123I]-CLINME administration, thyroid blocking was performed with an intraperitoneal injection of 2 mg/Kg potassium iodide. [^123I]-CLINME (74–148 MBq in 0.1 mL of 0.9% saline, S.A. > 80 GBq/μmol) was injected via the tail vein. […]
SPECT volumes were reconstructed with an Ordered Subset Expectation Maximisation iterative reconstruction algorithm using 3 iterations and 8 subsets. […] At each of the time points p.i., the ratio of the mean activity in the lesion VOI compared to the contralateral control VOI was determined. […]

[8] = In vivo biodistribution of [^123I]-CLINME; design: species or system Sprague-Dawley (SD) rats; conditions: for Biodistribution, Adrenals / Biodistribution, Blood / Biodistribution, Heart / Biodistribution, Kidney / Biodistribution, Liver / Biodistribution, Lungs / Biodistribution, Olfactory bulbs / Biodistribution, Spleen / Biodistribution, Thyroid / Biodistribution, Brain: SD male rats, i.v.; for Biodistribution, Brain: remainder of the brain
Experimental: No carrier added [^123I]-CLINME (0.7 MBq, 10 pmoles) dissolved in 0.9% saline (0.1 mL) was administered to 8–10-week-old male Sprague-Dawley (SD) rats (n = 4–6) via tail vein injection in a volume of 0.1 mL. At 5, 15, and 30 min and 1, 3, and 6 h after injection (p.i.) of the [^123I]-CLINME, the rats were sacrificed by CO2 administration followed by cervical fracture. […] Samples of organs and tissues were weighed and the radioactivity was measured using an automated γ-counter. The percent of injected dose (%ID) was calculated by comparison to a diluted standard solution derived from the initial injected sample. Radioactivity concentrations were expressed as percent of injected dose per gram of wet tissue (% ID/g).

## CCN([11CH3])C(=O)Cc1c(-c2ccc(I)cc2)nc2ccc(Cl)cn12 [[^11C]-CLINME]
[1]
  ratio lesion versus contralateral striatum, PET: 2.14 ± 0.09

## CCN(CC)C(=O)Cc1c(-c2ccc([123I])cc2)nc2ccc(Cl)cn12 [[^123I]-CLINDE]
[2]; at 8 h
  ratio of uptake olfactory bulbs versus rest of brain: 6

## CCN(C)C(=O)Cc1c(-c2ccc([125I])cc2)nc2ccc(Cl)cn12 [[^125I]-CLINME]
[3]
  radioligand binding in the lesioned striatum compared to the contralateral one: significantly increased

## Ro 5-4864
[4]
  reduction of uptake of [^123I]-CLINME in the blood: not significant
[4]; vs controls
  decrease of [^123I]-CLINME uptake in the heart: 77%
  decrease of [^123I]-CLINME uptake in the kidney: 68%
  decrease of [^123I]-CLINME uptake in the lungs: 62%
  decrease of [^123I]-CLINME uptake in the olfactory bulbs: nonsignificant reduction
  decrease of [^123I]-CLINME uptake in the remainder of the brain: 23%
  increase of [^123I]-CLINME concentration in the adrenals: 73%

## CCCN(CCC)C(=O)Cc1c(-c2ccc(Cl)cc2)nc2ccc(Cl)cn12 [alpidem]
[5]
  selectivity for the TPSO over the CBR: 20 fold

## CCN(C)C(=O)Cc1c(-c2ccc([123I])cc2)nc2ccc(Cl)cn12 [[^123I]-CLINME]
[6]
  unchanged radiotracer in brain tissue: more than 95%
[6]; 15 min p.i.
  unchanged tracer in extracted activity, plasma: 15%
[6]; 1 h p.i.
  unchanged tracer in extracted activity, plasma: 5%
[6]; 3 h p.i.
  unchanged tracer in extracted activity, plasma: 2%
[6]; constant over the three hours studied
  unchanged [^123I]-CLINME in extractable radioactivity, adrenals, kidney, and heart: more than 95%
[7]; 60 min p.i.
  mean ratio ± SD (ipsilateral : contralateral) striatum uptake, SPECT: 2.2 and 2.18 ± 0.89
[7]; 120 min p.i.
  mean ratio ± SD (ipsilateral : contralateral) striatum uptake, SPECT: 1.86 ± 0.51
[8]; 5 min p.i.
  Biodistribution, Adrenals: 2.89 ± 0.48 %ID/g
  Biodistribution, Blood: 0.18 ± 0.02 %ID/g
  Biodistribution, Heart: 3.28 ± 0.30 %ID/g
  Biodistribution, Kidney: 1.82 ± 0.20 %ID/g
  Biodistribution, Liver: 0.70 ± 0.10 %ID/g
  Biodistribution, Lungs: 7.88 ± 0.62 %ID/g
  Biodistribution, Olfactory bulbs: 0.38 ± 0.03 %ID/g
  Biodistribution, Spleen: 2.00 ± 0.55 %ID/g
  Biodistribution, Thyroid: 4.62 ± 2.17 %ID/g
  Biodistribution, Brain: 0.20 ± 0.02 %ID/g
[8]; 15 min p.i.
  Biodistribution, Adrenals: 4.71 ± 0.26 %ID/g
  Biodistribution, Blood: 0.09 ± 0.01 %ID/g
  Biodistribution, Heart: 3.53 ± 0.23 %ID/g
  Biodistribution, Kidney: 1.75 ± 0.07 %ID/g
  Biodistribution, Liver: 0.68 ± 0.07 %ID/g
  Biodistribution, Lungs: 3.53 ± 0.44 %ID/g
  Biodistribution, Olfactory bulbs: 0.28 ± 0.04 %ID/g
  Biodistribution, Spleen: 2.65 ± 0.40 %ID/g
  Biodistribution, Thyroid: 5.62 ± 1.24 %ID/g
  Biodistribution, Brain: 0.10 ± 0.01 %ID/g
[8]; 30 min p.i.
  Biodistribution, Adrenals: 7.55 ± 1.38 %ID/g
  Biodistribution, Blood: 0.08 ± 0.01 %ID/g
  Biodistribution, Heart: 3.32 ± 0.31 %ID/g
  Biodistribution, Kidney: 1.78 ± 0.18 %ID/g
  Biodistribution, Liver: 0.51 ± 0.07 %ID/g
  Biodistribution, Lungs: 2.45 ± 0.30 %ID/g
  Biodistribution, Olfactory bulbs: 0.34 ± 0.01 %ID/g
  Biodistribution, Spleen: 2.21 ± 0.15 %ID/g
  Biodistribution, Thyroid: 7.37 ± 2.14 %ID/g
  Biodistribution, Brain: 0.08 ± 0.00 %ID/g
[8]; 1 hour p.i.
  Biodistribution, Adrenals: 6.77 ± 0.54 %ID/g
  Biodistribution, Blood: 0.06 ± 0.00 %ID/g
  Biodistribution, Kidney: 1.16 ± 0.18 %ID/g
  Biodistribution, Liver: 0.42 ± 0.07 %ID/g
  Biodistribution, Lungs: 1.68 ± 0.10 %ID/g
  Biodistribution, Olfactory bulbs: 0.26 ± 0.05 %ID/g
  Biodistribution, Spleen: 1.76 ± 0.12 %ID/g
  Biodistribution, Thyroid: 6.46 ± 2.26 %ID/g
  Biodistribution, Brain: 0.06 ± 0.01 %ID/g
[8]; 3 hours p.i.
  Biodistribution, Adrenals: 6.65 ± 0.56 %ID/g
  Biodistribution, Blood: 0.04 ± 0.00 %ID/g
  Biodistribution, Heart: 1.28 ± 0.13 %ID/g
  Biodistribution, Kidney: 0.70 ± 0.05 %ID/g
  Biodistribution, Liver: 0.23 ± 0.01 %ID/g
  Biodistribution, Lungs: 0.95 ± 0.12 %ID/g
  Biodistribution, Olfactory bulbs: 0.25 ± 0.01 %ID/g
  Biodistribution, Spleen: 1.02 ± 0.14 %ID/g
  Biodistribution, Thyroid: 3.41 ± 1.10 %ID/g
  Biodistribution, Brain: 0.03 ± 0.00 %ID/g
[8]; 6 hours p.i.
  Biodistribution, Adrenals: 8.34 ± 0.71 %ID/g
  Biodistribution, Blood: 0.03 ± 0.00 %ID/g
  Biodistribution, Heart: 0.72 ± 0.14 %ID/g
  Biodistribution, Kidney: 0.51 ± 0.09 %ID/g
  Biodistribution, Liver: 0.21 ± 0.05 %ID/g
  Biodistribution, Lungs: 0.68 ± 0.08 %ID/g
  Biodistribution, Olfactory bulbs: 0.17 ± 0.05 %ID/g
  Biodistribution, Spleen: 0.67 ± 0.09 %ID/g
  Biodistribution, Thyroid: 4.11 ± 1.15 %ID/g
  Biodistribution, Brain: 0.02 ± 0.00 %ID/g
[8]; rats
  ratio of uptake olfactory bulbs to blood: 6
[8]; rats, after 30 min to 6 h p.i.
  plateau of activity in the adrenals: ≈ 7.5 % ID/g
[8]; rats, at 5 or 15 min p.i.
  peak activity in heart: 3.5 % ID/g
  peak activity in kidney: 1.8 % ID/g
  peak activity in liver: 0.7 % ID/g
  peak activity in lung: 7.9 % ID/g
  peak activity in spleen: 2.7 % ID/g
[8]; rats, at 5 min
  ratio of uptake olfactory bulbs versus remainder of the brain: 2
[8]; rats, at 3 h, constant till 6 h
  uptake in the thyroid: 4%
[8]; rats, at 6 h
  activity in liver, spleen, kidney, heart, and lung: less than 0.7 % ID/g
  ratio of uptake olfactory bulbs versus remainder of the brain: 8
[8]; rats, increase from 5 min to 1 h
  uptake in the thyroid: 4–7%
[8]; rats, throughout the time of measurement
  concentration in blood: < 0.18 % ID/g

## CCC(C)N([11CH3])C(=O)c1cc2ccccc2c(-c2ccccc2Cl)n1 (stereo not drawn) [[^11C]-PK11195]
[1]
  ratio lesion versus contralateral striatum, PET: 1.62 ± 0.05

## CCN(CC)C(=O)Cc1c(-c2ccc(I)cc2)nc2ccc(Cl)cn12 [CLINDE]
[5]
  selectivity for the TPSO over the CBR: 200 fold

## COc1ccc(OCC[18F])c(CN(C(C)=O)c2cc(F)ccc2Oc2ccccc2)c1 [[^18F]FE-DAA1106]
[2]
  ratio of uptake olfactory bulbs versus rest of brain: 3.5
